Measured values published in US8133471B2, “CLK-peptide and SLK-peptide” (New York University, priority 2003, dated 2012).

Legend:
Human melanoma cells M21 = assay: M21 melanoma cell adhesion to denatured collagen type-IV (Example 2); type: cell-based; conditions: M21 cells on denatured collagen type-IV; peptide 250 μg/ml
From the text: FIG. 1 is a chart which illustrates M21 human melanoma cell adhesion to untreated denatured type-IV collagen (NT), CLK-peptide treated denatured collagen type-IV, SLK-peptide treated denatured collagen type-IV, and SDR-peptide treated denatured collagen type-IV.
SLK peptides bind to functional epitopes within denatured collagen type-IV that regulate cellular adhesion. Non-tissue culture treated 48-well plates were coated with denatured collagen type-IV. Human melanoma cells M21 (Scripps Research Institute, La Jolla, Calif.) were allowed to attach to the coated wells in the presence or absence of the synthetic peptides CLK, SLK, and SDR, each peptide was at a concentration of 250 μg/ml. SDR peptide is a commercially available peptide that was used as a control (QED Bioscience, Inc., San Diego, Calif.).
Human denatured collagen type-IV (25 μg/ml) was immobilized on 48-well nontissue culture treated plates. Wells were washed and incubated with 1% BSA (bovine serum albumin) in PBS (phosphate-buffered saline) for one hour at 37° C. Subconfluent […] were harvested, washed, and resuspended in adhesion buffer containing RPMI-1640 medium, 1 mM MgCl2, 0.2 mM MnCl2, and 0.5% BSA. […] Cell adhesion was quantified by measuring the optical density of eluted crystal violet at a wavelength of 600 nm.

[1] = test system: Metastatic B16 murine melanoma cells; assay: B16 melanoma cell adhesion to native or denatured collagen type-IV (Example 3); type: cell-based
From the text: FIG. 2 is a chart which illustrates B16 murine melanoma cell adhesion to untreated denatured collagen type-IV (NT), CLK-peptide treated denatured collagen type-IV, and SHR-peptide treated denatured collagen type-IV.
Non-tissue culture treated 48-well plates were coated with either native (triple helical) or denatured collagen type-IV. Metastatic B16 murine melanoma cells were allowed to attach to the coated wells in the presence or absence of either CLK or SHR (control) peptide. CLK-peptide blockade of B16 cell adhesion to denatured type-IV collagen exceeded 95% (FIG. 2). CLK-peptide had little effect on B16 melanoma cell adhesion to native collagen type-IV.

[2] = test system: Human endothelial cells (HUVECs); assay: Endothelial cord formation in MATRIGEL; type: cell-based; conditions: 0 to 100 μg/ml, 24 hours
Method: FIG. 6 Effects of CLK Peptide on HUVEC Cord Formation in MATRIGEL®. MATRIGEL was added to 96-well plates and allowed to form three-dimensional gels. […] Representative photos were taken at a magnification of 100×. A. Untreated control. B. CLK 25 μg/ml. C. CLK 50 μg/ml. D. CLK 100 μg/ml. E. Control Peptide 100 μg/ml.
The role that the CLK cryptic collagen epitope plays in regulating endothelial cell morphogenesis and cord formation, processes important in angiogenesis, were investigated. MATRIGEL was diluted in M199 medium and 300 μl were added to the wells of a 48-well culture plate and allowed to polymerize. […] Endothelial morphogenesis and cord formation was monitored with an inverted microscope fitted with a 35 mm camera to document cord formation.

[3] = test system: Human melanoma cells (M21); assay: M21 cell adhesion to denatured or native collagen type-IV or fibronectin (Example 9); type: cell-based
Method: Non-tissue culture treated 48-well plates were coated with denatured collagen type-IV at 10 μg/ml. […] Cell adhesion was quantified by measuring the O.D. of eluted dye at 600 nm. Data bars represent the mean O.D.±standard deviation from triplicate wells. Assays were completed 2 to 3 times with similar results.
Non-tissue culture treated 48-well plates were coated with native collagen type-IV or fibronectin at 10 μg/ml. Human melanoma cells (M21) were allowed to attach to the coated wells in the presence or absence of CLK-Peptide or control peptide CTW at 0-100 μg/ml. Cell adhesion was quantified by measuring the O.D. of eluted dye at 600 nm. Data bars represent the mean O.D.±standard deviation from triplicate wells. Assays were completed 2 to 3 times with similar results. A. Adhesion to native collagen type-IV. B. Adhesion to Fibronectin.
Adhesion assays were performed to study the effects of CLK-peptide on tumor cell adhesion in vitro. Microtiter wells were coated with either native collagen type-IV or the control ECM protein fibronectin. Malignant melanoma cells (M21) were allowed to bind to the coated substrates in the presence or absence of CLK peptide or a control peptide, CTW.

[4] = test system: denatured collagen type-IV; assay: Solid phase ELISA, labeled CLK-peptide binding to denatured collagen type-IV
Method: FIG. 15 CLK-Peptide Reacts with a Cryptic Epitope in Collagen Type-IV In Vitro. Reactivity of biotin-labeled CLK-Peptide was assessed by solid phase ELISA. Reactivity was monitored by incubation with HRP-labeled streptavidin. […] All data was corrected for nonspecific binding of HRP-labeled streptavidin only. Data bars represent the mean optical density (O.D.)±standard deviation from triplicate wells. Assays were repeated 2 to 3 times with similar results.
The CLK-peptide was labeled with HRP and used in solid phase ELISA to assess differential binding to either native or denatured collagen type-IV. Microtiter plates were coated with either native or denatured collagen type-IV and HRP-labeled CLK-peptide was allowed to bind. […] In contrast, CLK-Peptide readily bound to denatured collagen type-IV. […] To determine whether this cryptic epitope was also exposed within the ECM in vivo, biotin-labeled CLK-peptide was used to stain M21 human melanoma tumors growing in nude mice (results shown in FIGS. 16A and B and described in Example 15).

- binding to denatured collagen type-IV [4]: readily bound
Substance: H-CLKQNGGNFSLG-OH [CLK-peptide, NH2-C-L-K-Q-N-G-G-N-F-S-L-G-COOH]
- blockade of melanoma cell adhesion (Human melanoma cells M21): exceeded 95%
- blockade of B16 cell adhesion to denatured type-IV collagen ([1]; wells coated with denatured collagen type-IV): exceeded 95%
- effect on B16 melanoma cell adhesion to native collagen type-IV ([1]; wells coated with native (triple helical) collagen type-IV): little effect
- effect on endothelial cord formation [2]: dose-dependently inhibited
- effect on M21 cell adhesion to fibronectin ([3]; 0-100 μg/ml): Neither CLK-Peptide nor the control peptide had any effect
- effect on M21 cell adhesion to native triple helical collagen type-IV ([3]; 0-100 μg/ml): Neither CLK-Peptide nor the control peptide had any effect
- maximal inhibition of M21 cell attachment to denatured collagen type-IV ([3]; at 100 μg/ml): approximately 65%
